Earlier results in patent EP4702989A1, “DRUG FOR TREATING LOCALLY ADVANCED UNRESECTABLE OR METASTATIC COLORECTAL CANCER AND USE THEREOF” (Shenzhen Chipscreen Biosciences Co., Ltd., priority 2023, dated 2024).
Where two headings read alike, the source gives them in different places.

Key:
[1] = CONCUR; >=3 treatment lines; sample size 136; 2015 Lancet
[2] = CORRECT; >=2 treatment lines; sample size 505; 2013 Lancet
[3] = FRESCO; >=3 treatment lines; sample size 278; 2018 JAMA
[4] = FRESCO-2; >=3 treatment lines; sample size 461; 2023 Lancet

Structure (SMILES)	Median PFS (months) [1] [months]	ORR [1] [%]	Median PFS (months) [2] [months]	ORR [2] [%]	Median PFS (months) [3] [months]	ORR [3] [%]	Median PFS (months) [4] [months]	ORR [4] [%]
CNC(=O)c1cc(Oc2ccc(NC(=O)Nc3ccc(Cl)c(C(F)(F)F)c3)c(F)c2)ccn1 [Regorafenib]	3.2	4.4	1.9	1.0				
CNC(=O)c1c(C)oc2cc(Oc3ncnc4cc(OC)c(OC)cc34)ccc12 [Fruquintinib]					3.7	4.7	3.7	1.5
